Assay [1] is described as follows: inhibitors of firefly luciferase expression or activity, dose response, H4 neuroglioma cells, luminescence (AID 1990). The assay is classed as functional, cell-based.
Assay [2] addresses Neuropeptide Y receptor type 1 (Homo sapiens, UniProt P25929). In kind it is functional.
Assay [3] can be described thus: Luminescence Cell-Based Dose Response HTS to Identify Inhibitors of 5'UTR Stem-Loop Driven Prion Protein mRNA Translation in H4 Neuroglioblastoma Cells. [Related pubchem assays: 1827 (Project Summary), 1813 (Primary HTS)]. The assay is classed as functional.
Assay [4] can be described thus: inhibitors of SNCA 5'UTR-driven reporter translation, confirmation, H4 neuroglioma cells, luminescence (AID 1988). The assay is classed as functional, cell-based.
The target of assay [5] is Neuropeptide Y receptor type 2 (Homo sapiens, UniProt P49146). The assay is classed as functional, cell-based.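 Note: HEK293 cells expressing the receptor and a CNG channel; stimulus was NPY near EC95 followed by isoproterenol to raise cAMP; antagonist potency measured as restoring cAMP signal that NPY suppresses.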
Sequence of Neuropeptide Y receptor type 2 (P49146 whole entry): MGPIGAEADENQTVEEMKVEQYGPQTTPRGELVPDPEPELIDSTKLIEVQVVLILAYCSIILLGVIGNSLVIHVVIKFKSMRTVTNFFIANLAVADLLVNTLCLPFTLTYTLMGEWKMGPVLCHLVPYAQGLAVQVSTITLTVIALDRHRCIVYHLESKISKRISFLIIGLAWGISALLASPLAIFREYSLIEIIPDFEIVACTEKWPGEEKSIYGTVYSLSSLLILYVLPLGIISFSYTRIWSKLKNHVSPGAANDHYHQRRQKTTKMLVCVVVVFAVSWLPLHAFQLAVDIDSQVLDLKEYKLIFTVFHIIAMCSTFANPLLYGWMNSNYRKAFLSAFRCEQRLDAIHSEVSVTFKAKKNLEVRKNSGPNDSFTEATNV
Assay [6] in a line: insulin promoter down-regulators in MIN6 cells, imaging, high-content screening, mouse beta cells (AID 1628). The assay is classed as functional.
The nature of assay [7]: cytotoxicity in MIN6 insulinoma cells, dose response, cytotoxicity control, cell-based, mouse insulinoma (AID 2122).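 Note: confirmatory high-throughput counterscreen run to flag cytotoxic compounds; mouse MIN-6 beta cells carrying an insulin promoter eGFP reporter.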 In kind it is functional.
The target of another assay is Large T antigen (Simian virus 40, UniProt P03070). The assay is classed as functional, Betapolyomavirus macacae.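 Note: Confirmatory-stage PubChem screen for compounds that inhibit SV40 T antigen.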
Sequence of Large T antigen (P03070 whole entry): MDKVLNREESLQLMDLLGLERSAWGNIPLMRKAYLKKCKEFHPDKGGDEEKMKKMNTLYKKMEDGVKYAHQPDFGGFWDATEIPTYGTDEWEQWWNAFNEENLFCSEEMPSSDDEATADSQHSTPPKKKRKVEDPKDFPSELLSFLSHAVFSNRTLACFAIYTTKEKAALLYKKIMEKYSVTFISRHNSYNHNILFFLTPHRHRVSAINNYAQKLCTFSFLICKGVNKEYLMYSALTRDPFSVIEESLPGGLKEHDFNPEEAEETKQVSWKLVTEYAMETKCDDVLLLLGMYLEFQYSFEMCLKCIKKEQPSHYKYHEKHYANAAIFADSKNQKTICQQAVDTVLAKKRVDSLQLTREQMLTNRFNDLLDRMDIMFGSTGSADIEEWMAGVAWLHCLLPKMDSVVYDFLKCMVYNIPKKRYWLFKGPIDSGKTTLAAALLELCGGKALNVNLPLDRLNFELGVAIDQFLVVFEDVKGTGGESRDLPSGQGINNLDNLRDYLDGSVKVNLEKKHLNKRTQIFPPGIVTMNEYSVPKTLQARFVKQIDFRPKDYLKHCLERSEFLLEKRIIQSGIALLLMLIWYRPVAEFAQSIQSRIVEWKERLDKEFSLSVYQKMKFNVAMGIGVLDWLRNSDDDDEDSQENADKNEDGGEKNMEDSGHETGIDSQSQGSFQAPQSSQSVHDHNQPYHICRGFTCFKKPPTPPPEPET
For assay [8], the target named is T1, Mannose-6-phosphate isomerase (Homo sapiens, UniProt P34949).
T1 sequence (P34949 whole entry): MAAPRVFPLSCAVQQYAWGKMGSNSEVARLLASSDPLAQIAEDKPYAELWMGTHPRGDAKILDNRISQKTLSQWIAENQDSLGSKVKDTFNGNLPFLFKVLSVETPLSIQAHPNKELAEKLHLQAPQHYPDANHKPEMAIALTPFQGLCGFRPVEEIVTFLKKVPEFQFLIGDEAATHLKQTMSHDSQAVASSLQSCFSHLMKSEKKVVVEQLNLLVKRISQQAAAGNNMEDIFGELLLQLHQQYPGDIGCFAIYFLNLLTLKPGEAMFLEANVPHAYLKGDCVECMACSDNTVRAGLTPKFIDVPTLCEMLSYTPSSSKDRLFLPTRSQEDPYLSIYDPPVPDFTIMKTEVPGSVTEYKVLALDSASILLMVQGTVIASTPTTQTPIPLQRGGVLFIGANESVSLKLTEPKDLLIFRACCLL
Description: inhibitors of human PMI, primary screen, biochemical, fluorescence intensity, coupled assay (AID 1209).

Assay [9] in a line: NIH-3T3 fibroblast cytotoxicity, dose response, cytotoxicity control, cell-based, fluorescence, Alamar Blue, secondary assay (AID 2327).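 Note: NIH-3T3 mouse fibroblasts cultured with fluconazole at 8 µg/mL.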 In kind it is functional. In general terms: Resazurin is reduced to fluorescent resorufin, in cell work by metabolically active cells.
The next assay has as its target T2, Leucine aminopeptidase (Plasmodium falciparum 3D7, UniProt Q8IL11).
T2 sequence (Q8IL11 whole entry): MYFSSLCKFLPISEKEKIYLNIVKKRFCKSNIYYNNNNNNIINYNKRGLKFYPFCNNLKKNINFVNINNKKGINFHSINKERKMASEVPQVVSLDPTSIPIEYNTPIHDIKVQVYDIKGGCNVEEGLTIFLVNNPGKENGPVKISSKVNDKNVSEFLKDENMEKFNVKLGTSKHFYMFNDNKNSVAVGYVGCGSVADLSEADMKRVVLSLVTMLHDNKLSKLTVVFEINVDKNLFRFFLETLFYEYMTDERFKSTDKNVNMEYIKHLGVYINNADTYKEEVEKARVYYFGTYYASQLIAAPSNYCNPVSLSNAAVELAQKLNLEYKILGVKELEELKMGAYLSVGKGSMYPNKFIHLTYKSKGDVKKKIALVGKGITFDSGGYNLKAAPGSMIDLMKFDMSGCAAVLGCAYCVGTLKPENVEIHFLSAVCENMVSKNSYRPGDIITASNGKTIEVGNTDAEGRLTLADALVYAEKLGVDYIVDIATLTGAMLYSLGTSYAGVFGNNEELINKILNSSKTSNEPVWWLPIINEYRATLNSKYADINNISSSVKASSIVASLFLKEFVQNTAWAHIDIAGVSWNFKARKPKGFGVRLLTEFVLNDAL
Description: P. falciparum M17LAP inhibitors, primary screen, biochemical, fluorogenic H-Leu-NHMec substrate, 1536-well (AID 1619). The assay is classed as functional.

Assay [10] can be described thus: C. albicans growth with fluconazole, confirmation, fluorescence, retest (AID 2467). In kind it is functional, cell-based.
For assay [11], the target named is Induced myeloid leukemia cell differentiation protein Mcl-1 (Homo sapiens, UniProt Q07820). The experiment in a line: MCL1-BIM BH3 interaction inhibitors, dose response, biochemical, fluorescence polarization, BIM-BH3 peptide, 1536-well (AID 2217). For orientation: Fluorescence polarisation rises when a labelled molecule tumbles more slowly, as on binding a larger partner.
Sequence of Induced myeloid leukemia cell differentiation protein Mcl-1 (Q07820 whole entry): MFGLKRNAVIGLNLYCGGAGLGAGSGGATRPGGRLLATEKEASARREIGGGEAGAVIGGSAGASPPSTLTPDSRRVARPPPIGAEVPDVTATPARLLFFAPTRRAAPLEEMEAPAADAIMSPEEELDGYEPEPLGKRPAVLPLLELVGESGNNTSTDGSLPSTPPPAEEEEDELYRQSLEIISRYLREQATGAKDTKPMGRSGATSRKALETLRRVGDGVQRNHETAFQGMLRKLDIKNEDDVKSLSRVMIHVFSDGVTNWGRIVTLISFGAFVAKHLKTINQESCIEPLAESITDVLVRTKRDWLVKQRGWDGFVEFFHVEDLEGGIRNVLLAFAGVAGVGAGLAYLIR

The target in assay [12] is T3, Estrogen receptor beta (Homo sapiens, UniProt Q92731).
T3 sequence (Q92731 whole entry): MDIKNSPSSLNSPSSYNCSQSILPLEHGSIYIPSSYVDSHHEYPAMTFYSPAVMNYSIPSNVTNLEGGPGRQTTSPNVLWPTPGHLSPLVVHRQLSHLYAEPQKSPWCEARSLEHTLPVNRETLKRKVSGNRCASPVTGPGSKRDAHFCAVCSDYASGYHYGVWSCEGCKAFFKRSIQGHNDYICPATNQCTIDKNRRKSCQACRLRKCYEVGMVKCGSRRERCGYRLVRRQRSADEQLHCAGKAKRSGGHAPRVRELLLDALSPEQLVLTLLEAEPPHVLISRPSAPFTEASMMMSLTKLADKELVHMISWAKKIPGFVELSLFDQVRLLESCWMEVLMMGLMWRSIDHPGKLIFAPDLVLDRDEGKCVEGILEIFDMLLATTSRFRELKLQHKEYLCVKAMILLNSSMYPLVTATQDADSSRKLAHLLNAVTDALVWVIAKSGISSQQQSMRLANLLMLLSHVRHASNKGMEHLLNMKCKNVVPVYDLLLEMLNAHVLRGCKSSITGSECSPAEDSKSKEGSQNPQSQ
In assay [13] the target is T3, Estrogen receptor beta. Description: ERβ–SRC-3 coactivator interaction inhibitors, confirmation, orthogonal assay, biochemical, ELISA, streptavidin-HRP readout (AID 1060).
The target of another assay is Bcl-2-like protein 1 (Homo sapiens, UniProt Q07817). Description: BCL-XL inhibitors, dose response, selectivity assay for MCL1 inhibitor project, biochemical, fluorescence polarization, 1536-well (AID 2218).
Sequence of Bcl-2-like protein 1 (Q07817 whole entry): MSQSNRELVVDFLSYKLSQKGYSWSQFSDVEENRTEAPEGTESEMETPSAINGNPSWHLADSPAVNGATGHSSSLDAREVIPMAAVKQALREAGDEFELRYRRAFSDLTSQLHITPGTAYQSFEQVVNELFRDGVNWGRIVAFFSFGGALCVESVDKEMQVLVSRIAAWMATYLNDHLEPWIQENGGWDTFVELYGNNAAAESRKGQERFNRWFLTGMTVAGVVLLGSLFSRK
For assay [14], the target named is Intestinal-type alkaline phosphatase (Mus musculus, UniProt P24822). Description: PubChem AID 488785. In kind it is functional.
Sequence of Intestinal-type alkaline phosphatase (Mus musculus, UniProt P24822) (P24822 whole entry): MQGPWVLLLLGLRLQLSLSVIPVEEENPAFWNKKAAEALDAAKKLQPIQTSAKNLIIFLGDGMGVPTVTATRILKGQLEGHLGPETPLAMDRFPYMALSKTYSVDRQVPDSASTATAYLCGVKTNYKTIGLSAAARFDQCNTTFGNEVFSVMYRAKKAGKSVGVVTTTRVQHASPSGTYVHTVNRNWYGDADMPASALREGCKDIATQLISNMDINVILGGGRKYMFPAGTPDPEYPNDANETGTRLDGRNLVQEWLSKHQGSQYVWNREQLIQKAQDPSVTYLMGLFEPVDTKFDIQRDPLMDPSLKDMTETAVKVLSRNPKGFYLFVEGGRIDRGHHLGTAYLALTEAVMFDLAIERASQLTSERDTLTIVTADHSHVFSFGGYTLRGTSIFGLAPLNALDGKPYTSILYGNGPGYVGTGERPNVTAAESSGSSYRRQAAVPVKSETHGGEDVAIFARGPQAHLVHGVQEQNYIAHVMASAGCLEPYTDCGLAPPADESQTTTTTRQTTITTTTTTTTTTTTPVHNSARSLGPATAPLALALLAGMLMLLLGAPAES
The target in assay [15] is T4, Alkaline phosphatase, tissue-nonspecific isozyme (Homo sapiens, UniProt P05186).
T4 sequence (P05186 whole entry): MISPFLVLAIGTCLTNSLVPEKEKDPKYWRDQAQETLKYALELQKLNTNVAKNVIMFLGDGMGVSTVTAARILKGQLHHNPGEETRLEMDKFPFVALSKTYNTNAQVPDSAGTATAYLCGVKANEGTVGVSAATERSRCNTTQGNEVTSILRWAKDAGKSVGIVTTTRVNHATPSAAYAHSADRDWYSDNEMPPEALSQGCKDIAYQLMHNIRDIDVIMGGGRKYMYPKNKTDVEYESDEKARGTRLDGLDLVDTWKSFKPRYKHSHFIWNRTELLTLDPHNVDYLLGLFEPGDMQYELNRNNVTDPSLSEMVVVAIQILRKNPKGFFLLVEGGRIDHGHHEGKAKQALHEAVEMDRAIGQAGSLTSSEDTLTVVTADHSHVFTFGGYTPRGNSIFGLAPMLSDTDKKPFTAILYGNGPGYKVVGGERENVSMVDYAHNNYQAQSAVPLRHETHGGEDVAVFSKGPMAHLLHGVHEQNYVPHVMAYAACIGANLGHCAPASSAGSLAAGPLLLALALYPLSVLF
The experiment in a line: TNAP enzyme inhibition by screening hits, dose response, selectivity assay for mouse IAP inhibitor project, biochemical, human TNAP, uHTS hits (AID 488906). The assay is classed as functional.

For assay [16], the target named is Intestinal-type alkaline phosphatase (Homo sapiens, UniProt P09923). The experiment in a line: inhibition of human intestinal alkaline phosphatase – biochemical, dose response (AID 488876). The assay is classed as functional.
Sequence of Intestinal-type alkaline phosphatase (Homo sapiens, UniProt P09923) (P09923 whole entry): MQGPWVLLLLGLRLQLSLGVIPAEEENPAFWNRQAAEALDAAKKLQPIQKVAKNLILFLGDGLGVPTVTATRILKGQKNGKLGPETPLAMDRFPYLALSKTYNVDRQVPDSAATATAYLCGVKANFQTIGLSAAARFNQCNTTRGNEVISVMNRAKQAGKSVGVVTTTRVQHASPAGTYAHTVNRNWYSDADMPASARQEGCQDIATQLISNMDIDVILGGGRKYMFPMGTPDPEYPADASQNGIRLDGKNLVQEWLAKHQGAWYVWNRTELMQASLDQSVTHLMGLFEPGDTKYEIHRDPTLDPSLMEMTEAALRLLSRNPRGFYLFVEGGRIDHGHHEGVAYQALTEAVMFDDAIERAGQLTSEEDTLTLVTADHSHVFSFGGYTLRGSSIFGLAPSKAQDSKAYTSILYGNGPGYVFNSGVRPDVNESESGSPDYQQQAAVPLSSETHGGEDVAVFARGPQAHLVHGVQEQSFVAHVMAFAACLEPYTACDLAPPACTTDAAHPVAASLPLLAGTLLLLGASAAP
A further assay concerns the target Albumin (Bos taurus, UniProt P02769). Description: Counterscreen for inhibitors of T-cell receptor (TCR)-CD3 interaction: Fluorescence-based biochemical high throughput dose response assay to identify inhibitors of T-cell receptor (TCR)-CD3 interaction using a TAMRA-labeled BSA probe. The assay is classed as functional. (In general: A counterscreen serves to expose hits that act by an unwanted route or on another target.)

Assay [17] addresses T5, Histone-lysine N-methyltransferase NSD2 (Homo sapiens, UniProt O96028).
T5 sequence (O96028 whole entry): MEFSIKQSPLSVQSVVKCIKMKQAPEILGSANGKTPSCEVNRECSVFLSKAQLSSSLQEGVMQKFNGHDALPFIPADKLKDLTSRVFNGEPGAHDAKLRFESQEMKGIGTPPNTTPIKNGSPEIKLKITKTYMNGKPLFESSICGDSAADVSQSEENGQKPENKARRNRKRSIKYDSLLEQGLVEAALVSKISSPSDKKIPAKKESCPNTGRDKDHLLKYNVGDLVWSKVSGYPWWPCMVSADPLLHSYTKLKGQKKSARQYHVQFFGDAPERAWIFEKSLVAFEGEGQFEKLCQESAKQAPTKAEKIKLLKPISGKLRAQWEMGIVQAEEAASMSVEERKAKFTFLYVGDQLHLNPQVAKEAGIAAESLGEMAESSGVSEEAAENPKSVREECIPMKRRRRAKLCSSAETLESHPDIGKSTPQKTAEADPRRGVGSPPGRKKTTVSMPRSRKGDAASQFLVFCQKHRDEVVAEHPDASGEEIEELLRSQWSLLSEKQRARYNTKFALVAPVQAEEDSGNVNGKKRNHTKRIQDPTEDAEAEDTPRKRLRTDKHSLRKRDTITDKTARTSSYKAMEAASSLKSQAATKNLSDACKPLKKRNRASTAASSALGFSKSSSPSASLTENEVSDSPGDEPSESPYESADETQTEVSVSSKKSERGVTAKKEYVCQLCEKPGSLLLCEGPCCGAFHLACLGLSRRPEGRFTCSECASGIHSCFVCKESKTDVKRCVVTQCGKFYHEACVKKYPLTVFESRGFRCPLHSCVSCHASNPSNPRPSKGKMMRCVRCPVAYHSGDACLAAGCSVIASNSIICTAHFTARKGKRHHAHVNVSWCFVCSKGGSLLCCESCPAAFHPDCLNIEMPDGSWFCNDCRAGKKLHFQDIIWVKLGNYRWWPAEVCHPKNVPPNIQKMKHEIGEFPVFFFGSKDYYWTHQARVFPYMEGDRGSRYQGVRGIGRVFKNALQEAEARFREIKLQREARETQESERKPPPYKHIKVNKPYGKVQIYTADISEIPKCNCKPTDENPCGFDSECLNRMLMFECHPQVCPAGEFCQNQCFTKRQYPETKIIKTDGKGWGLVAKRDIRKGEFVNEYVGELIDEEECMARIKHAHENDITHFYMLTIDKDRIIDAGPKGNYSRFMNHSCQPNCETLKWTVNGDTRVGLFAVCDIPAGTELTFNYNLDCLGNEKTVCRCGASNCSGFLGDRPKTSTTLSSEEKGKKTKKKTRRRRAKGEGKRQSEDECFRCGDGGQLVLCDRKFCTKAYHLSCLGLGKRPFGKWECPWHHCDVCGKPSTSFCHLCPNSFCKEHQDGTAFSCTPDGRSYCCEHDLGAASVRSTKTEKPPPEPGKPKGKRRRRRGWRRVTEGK
In kind it is biochemical.

The target of another assay is T6, Bcl-2-like protein 10 (Homo sapiens, UniProt Q9HD36).
T6 sequence (Q9HD36 whole entry): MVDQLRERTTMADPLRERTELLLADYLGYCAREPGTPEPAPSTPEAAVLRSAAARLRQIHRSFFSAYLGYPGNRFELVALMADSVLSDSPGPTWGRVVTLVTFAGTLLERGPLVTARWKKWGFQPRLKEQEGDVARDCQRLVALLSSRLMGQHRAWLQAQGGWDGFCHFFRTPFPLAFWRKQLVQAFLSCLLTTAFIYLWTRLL
Description: Biochemical TR3 FP assay of Bcl-B inhibitor potency, EC50 (AID 1243). The assay is classed as functional.

Calls of active or inactive are those of the source. A value given as a limit tells only on which side of the number the result lay.

Sequence of Albumin (P02769 whole entry): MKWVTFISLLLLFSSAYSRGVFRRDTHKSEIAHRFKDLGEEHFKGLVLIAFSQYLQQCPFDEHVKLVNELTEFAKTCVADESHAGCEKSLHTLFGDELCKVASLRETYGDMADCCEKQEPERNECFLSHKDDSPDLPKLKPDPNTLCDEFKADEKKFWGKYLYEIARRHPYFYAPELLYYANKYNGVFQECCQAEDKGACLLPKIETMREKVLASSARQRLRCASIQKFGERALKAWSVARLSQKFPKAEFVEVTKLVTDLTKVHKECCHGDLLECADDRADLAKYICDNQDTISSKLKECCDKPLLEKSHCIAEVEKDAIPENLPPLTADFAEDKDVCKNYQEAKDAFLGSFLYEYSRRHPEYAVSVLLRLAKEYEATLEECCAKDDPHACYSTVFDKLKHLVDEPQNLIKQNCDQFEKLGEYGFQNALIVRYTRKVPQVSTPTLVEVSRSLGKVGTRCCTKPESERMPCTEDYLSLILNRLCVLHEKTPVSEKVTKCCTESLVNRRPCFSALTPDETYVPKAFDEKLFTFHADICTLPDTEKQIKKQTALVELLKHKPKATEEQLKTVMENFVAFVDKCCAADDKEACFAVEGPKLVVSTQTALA
Sequence of Neuropeptide Y receptor type 1 (P25929 whole entry): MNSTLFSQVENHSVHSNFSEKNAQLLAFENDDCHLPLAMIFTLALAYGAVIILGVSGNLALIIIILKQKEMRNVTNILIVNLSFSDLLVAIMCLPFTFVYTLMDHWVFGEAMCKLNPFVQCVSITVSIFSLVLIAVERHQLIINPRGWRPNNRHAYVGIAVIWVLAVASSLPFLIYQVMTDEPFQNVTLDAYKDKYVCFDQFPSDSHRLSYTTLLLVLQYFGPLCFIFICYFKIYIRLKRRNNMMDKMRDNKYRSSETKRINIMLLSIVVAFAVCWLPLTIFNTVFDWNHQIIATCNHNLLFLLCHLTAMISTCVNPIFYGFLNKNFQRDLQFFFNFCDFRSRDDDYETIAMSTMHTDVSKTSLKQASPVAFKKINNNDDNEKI

Consider `C/C=C(/C)C(=O)O[C@@H]1c2c(ccc3ccc(=O)oc23)O[C@@H]1C(C)(C)OC(=O)/C(C)=C\C`, for which the concentration for a half-maximal effect (EC50) in [1] is 15.2 µM (active); in assay [3], > 120 µM (not active); in [4] it was > 120 µM (not active). Also, the IC50 in [2] was 5.85 µM (active); in assay [5], 5.06 µM (active).

On to `Cc1ccc(Nc2nc(-c3ccc(O)c(O)c3)cs2)nc1`, for which the IC50 in [6] is 6.26 µM (active); in assay [7], 3.85 µM (active); at Large T antigen it was 12.3 µM (active); in [8], 48.6 µM (active).

In the case of `CCn1c(SCC(=O)c2ccc(O)c(O)c2)nnc1-c1ccccc1OC`, the EC50 in assay [9] is > 160 µM (inactive); in [10], > 38 µM (not active). Also, the IC50 at Leucine aminopeptidase was 24.4 µM (active); on Large T antigen it was 7.83 µM (active); in assay [11], 37.4 µM (not active); at Estrogen receptor beta [12] it was 5.06 µM (active); on Estrogen receptor beta [13] it was 93.8 µM (not active); against Bcl-2-like protein 1 it was > 109 µM (not active). Moreover, the IC50 in assay [14] is 1.43 µM (active); in assay [15] it was > 100 µM (inactive); in [16] it was > 100 µM (inactive); on Albumin, > 94.1 µM (inactive). Also, the AC50 in [17] is 9.05 µM (active).

Regarding `COc1ccc(Nc2ccc(N)cc2)cc1`, the EC50 on Bcl-2-like protein 10 was 7.22 µM (active).

By EC50 is commonly meant the concentration at which the effect is half-maximal. What is called IC50 is the concentration at which inhibition is half-maximal. In general, AC50 refers to the midpoint of the concentration-response curve, whichever way the signal moves.

The values are drawn from ChEMBL document CHEMBL1201862, “PubChem BioAssay data set” (2004).
